Source: PMC5433425 (PeerJ, 2017)
Peptide text beside a SMILES is read from it. * marks the point of attachment. βNA = c1ccc2cc(N*)ccc2c1

Assays:
E. coli AG100 = test: EtBr efflux by real-time fluorometry; details: 80 µM, without glucose
Method: (§1) Control tubes with only cells and cells with and without 0.4% glucose were included. The fluorescence was measured in a Rotor-Gene 3000 and the data was acquired every 30 s for 30 min at 37 °C. The efflux activity was quantified by comparing the fluorescence data obtained under conditions that promote efflux (presence of glucose and absence of efflux inhibitor) with the data from the control in which the bacteria are under conditions of no efflux (presence of an inhibitor and no energy source).

E. coli AG100tet = test: EtBr efflux by real-time fluorometry; details: 80 µM
Method: as §1

## NC(N)=NCCC[C@H](NC(=O)[C@@H](N)Cc1ccccc1)C(=O)Nc1ccc2ccccc2c1 [PAβN] (H-Phe-Arg-βNA)
E. coli AG100; cycle 57
  EtBr fluorescence (Channel Cycling A.530/585hp): 1.017
E. coli AG100; cycle 58
  EtBr fluorescence (Channel Cycling A.530/585hp): 0.9905
E. coli AG100; cycle 59
  EtBr fluorescence (Channel Cycling A.530/585hp): 1.041
E. coli AG100; cycle 60
  EtBr fluorescence (Channel Cycling A.530/585hp): 1.02
E. coli AG100; cycle 61
  EtBr fluorescence (Channel Cycling A.530/585hp): 1.0374
E. coli AG100tet; cycle 1, + glucose
  Fluorescence raw data, Channel Cycling A.530/585hp: 2.731
E. coli AG100tet; cycle 1, without glucose
  Fluorescence raw data, Channel Cycling A.530/585hp: 3.207
E. coli AG100tet; cycle 2, + glucose
  Fluorescence raw data, Channel Cycling A.530/585hp: 2.53
E. coli AG100tet; cycle 2, without glucose
  Fluorescence raw data, Channel Cycling A.530/585hp: 3.035
E. coli AG100tet; cycle 3, + glucose
  Fluorescence raw data, Channel Cycling A.530/585hp: 2.342
E. coli AG100tet; cycle 3, without glucose
  Fluorescence raw data, Channel Cycling A.530/585hp: 2.872
E. coli AG100tet; cycle 4, without glucose
  Fluorescence raw data, Channel Cycling A.530/585hp: 2.787
E. coli AG100tet; cycle 5, without glucose
  Fluorescence raw data, Channel Cycling A.530/585hp: 2.697
E. coli AG100tet; cycle 6, without glucose
  Fluorescence raw data, Channel Cycling A.530/585hp: 2.616
E. coli AG100tet; cycle 7, without glucose
  Fluorescence raw data, Channel Cycling A.530/585hp: 2.625
E. coli AG100tet; cycle 8, without glucose
  Fluorescence raw data, Channel Cycling A.530/585hp: 2.608
E. coli AG100tet; cycle 9, + glucose
  Fluorescence raw data, Channel Cycling A.530/585hp: 1.745
E. coli AG100tet; cycle 9, without glucose
  Fluorescence raw data, Channel Cycling A.530/585hp: 2.567
E. coli AG100tet; cycle 10, + glucose
  Fluorescence raw data, Channel Cycling A.530/585hp: 1.7497
E. coli AG100tet; cycle 10, without glucose
  Fluorescence raw data, Channel Cycling A.530/585hp: 2.517
E. coli AG100tet; cycle 11, + glucose
  Fluorescence raw data, Channel Cycling A.530/585hp: 1.716
E. coli AG100tet; cycle 11, without glucose
  Fluorescence raw data, Channel Cycling A.530/585hp: 2.463
E. coli AG100tet; cycle 12, + glucose
  Fluorescence raw data, Channel Cycling A.530/585hp: 1.744
E. coli AG100tet; cycle 12, without glucose
  Fluorescence raw data, Channel Cycling A.530/585hp: 2.462
E. coli AG100tet; cycle 13, + glucose
  Fluorescence raw data, Channel Cycling A.530/585hp: 1.706
E. coli AG100tet; cycle 13, without glucose
  Fluorescence raw data, Channel Cycling A.530/585hp: 2.458
E. coli AG100tet; cycle 14, + glucose
  Fluorescence raw data, Channel Cycling A.530/585hp: 1.697
E. coli AG100tet; cycle 14, without glucose
  Fluorescence raw data, Channel Cycling A.530/585hp: 2.431
E. coli AG100tet; cycle 15, + glucose
  Fluorescence raw data, Channel Cycling A.530/585hp: 1.701
E. coli AG100tet; cycle 15, without glucose
  Fluorescence raw data, Channel Cycling A.530/585hp: 2.375
E. coli AG100tet; cycle 16, + glucose
  Fluorescence raw data, Channel Cycling A.530/585hp: 1.676
E. coli AG100tet; cycle 16, without glucose
  Fluorescence raw data, Channel Cycling A.530/585hp: 2.373
E. coli AG100tet; cycle 17, + glucose
  Fluorescence raw data, Channel Cycling A.530/585hp: 1.744
E. coli AG100tet; cycle 17, without glucose
  Fluorescence raw data, Channel Cycling A.530/585hp: 2.339
E. coli AG100tet; cycle 18, + glucose
  Fluorescence raw data, Channel Cycling A.530/585hp: 1.635
E. coli AG100tet; cycle 18, without glucose
  Fluorescence raw data, Channel Cycling A.530/585hp: 2.379
E. coli AG100tet; cycle 19, + glucose
  Fluorescence raw data, Channel Cycling A.530/585hp: 1.694
E. coli AG100tet; cycle 19, without glucose
  Fluorescence raw data, Channel Cycling A.530/585hp: 2.342
E. coli AG100tet; cycle 20, + glucose
  Fluorescence raw data, Channel Cycling A.530/585hp: 1.701
E. coli AG100tet; cycle 20, without glucose
  Fluorescence raw data, Channel Cycling A.530/585hp: 2.323
E. coli AG100tet; cycle 21, + glucose
  Fluorescence raw data, Channel Cycling A.530/585hp: 1.621
E. coli AG100tet; cycle 21, without glucose
  Fluorescence raw data, Channel Cycling A.530/585hp: 2.26
E. coli AG100tet; cycle 22, + glucose
  Fluorescence raw data, Channel Cycling A.530/585hp: 1.645
E. coli AG100tet; cycle 22, without glucose
  Fluorescence raw data, Channel Cycling A.530/585hp: 2.252
E. coli AG100tet; cycle 23, + glucose
  Fluorescence raw data, Channel Cycling A.530/585hp: 1.597
E. coli AG100tet; cycle 23, without glucose
  Fluorescence raw data, Channel Cycling A.530/585hp: 2.314
E. coli AG100tet; cycle 24, + glucose
  Fluorescence raw data, Channel Cycling A.530/585hp: 1.6798
E. coli AG100tet; cycle 24, without glucose
  Fluorescence raw data, Channel Cycling A.530/585hp: 2.2447
E. coli AG100tet; cycle 25, + glucose
  Fluorescence raw data, Channel Cycling A.530/585hp: 1.636
E. coli AG100tet; cycle 25, without glucose
  Fluorescence raw data, Channel Cycling A.530/585hp: 2.272
E. coli AG100tet; cycle 26, + glucose
  Fluorescence raw data, Channel Cycling A.530/585hp: 1.633
E. coli AG100tet; cycle 26, without glucose
  Fluorescence raw data, Channel Cycling A.530/585hp: 2.288
E. coli AG100tet; cycle 27, + glucose
  Fluorescence raw data, Channel Cycling A.530/585hp: 1.617
E. coli AG100tet; cycle 27, without glucose
  Fluorescence raw data, Channel Cycling A.530/585hp: 2.2961
E. coli AG100tet; cycle 28, + glucose
  Fluorescence raw data, Channel Cycling A.530/585hp: 1.668
E. coli AG100tet; cycle 28, without glucose
  Fluorescence raw data, Channel Cycling A.530/585hp: 2.2127
E. coli AG100tet; cycle 29, + glucose
  Fluorescence raw data, Channel Cycling A.530/585hp: 1.644
E. coli AG100tet; cycle 29, without glucose
  Fluorescence raw data, Channel Cycling A.530/585hp: 2.236
E. coli AG100tet; cycle 30, + glucose
  Fluorescence raw data, Channel Cycling A.530/585hp: 1.668
E. coli AG100tet; cycle 30, without glucose
  Fluorescence raw data, Channel Cycling A.530/585hp: 2.282
E. coli AG100tet; cycle 31, + glucose
  Fluorescence raw data, Channel Cycling A.530/585hp: 1.6751
E. coli AG100tet; cycle 31, without glucose
  Fluorescence raw data, Channel Cycling A.530/585hp: 2.164
E. coli AG100tet; cycle 32, + glucose
  Fluorescence raw data, Channel Cycling A.530/585hp: 1.6187
E. coli AG100tet; cycle 32, without glucose
  Fluorescence raw data, Channel Cycling A.530/585hp: 2.166
E. coli AG100tet; cycle 33, + glucose
  Fluorescence raw data, Channel Cycling A.530/585hp: 1.65
E. coli AG100tet; cycle 33, without glucose
  Fluorescence raw data, Channel Cycling A.530/585hp: 2.197
E. coli AG100tet; cycle 34, + glucose
  Fluorescence raw data, Channel Cycling A.530/585hp: 1.608
E. coli AG100tet; cycle 34, without glucose
  Fluorescence raw data, Channel Cycling A.530/585hp: 2.188
E. coli AG100tet; cycle 35, + glucose
  Fluorescence raw data, Channel Cycling A.530/585hp: 1.636
E. coli AG100tet; cycle 35, without glucose
  Fluorescence raw data, Channel Cycling A.530/585hp: 2.154
E. coli AG100tet; cycle 36, + glucose
  Fluorescence raw data, Channel Cycling A.530/585hp: 1.655
E. coli AG100tet; cycle 36, without glucose
  Fluorescence raw data, Channel Cycling A.530/585hp: 2.1525
E. coli AG100tet; cycle 37, + glucose
  Fluorescence raw data, Channel Cycling A.530/585hp: 1.639
E. coli AG100tet; cycle 37, without glucose
  Fluorescence raw data, Channel Cycling A.530/585hp: 2.17
E. coli AG100tet; cycle 38, + glucose
  Fluorescence raw data, Channel Cycling A.530/585hp: 1.617
E. coli AG100tet; cycle 38, without glucose
  Fluorescence raw data, Channel Cycling A.530/585hp: 2.15
E. coli AG100tet; cycle 39, + glucose
  Fluorescence raw data, Channel Cycling A.530/585hp: 1.593
E. coli AG100tet; cycle 39, without glucose
  Fluorescence raw data, Channel Cycling A.530/585hp: 2.185
E. coli AG100tet; cycle 40, + glucose
  Fluorescence raw data, Channel Cycling A.530/585hp: 1.564
E. coli AG100tet; cycle 40, without glucose
  Fluorescence raw data, Channel Cycling A.530/585hp: 2.132
E. coli AG100tet; cycle 41, + glucose
  Fluorescence raw data, Channel Cycling A.530/585hp: 1.567
E. coli AG100tet; cycle 41, without glucose
  Fluorescence raw data, Channel Cycling A.530/585hp: 2.08
E. coli AG100tet; cycle 42, + glucose
  Fluorescence raw data, Channel Cycling A.530/585hp: 1.587
E. coli AG100tet; cycle 42, without glucose
  Fluorescence raw data, Channel Cycling A.530/585hp: 2.131
E. coli AG100tet; cycle 43, + glucose
  Fluorescence raw data, Channel Cycling A.530/585hp: 1.59
E. coli AG100tet; cycle 43, without glucose
  Fluorescence raw data, Channel Cycling A.530/585hp: 2.079
E. coli AG100tet; cycle 44, + glucose
  Fluorescence raw data, Channel Cycling A.530/585hp: 1.59
E. coli AG100tet; cycle 44, without glucose
  Fluorescence raw data, Channel Cycling A.530/585hp: 2.093
E. coli AG100tet; cycle 45, without glucose
  Fluorescence raw data, Channel Cycling A.530/585hp: 2.121
E. coli AG100tet; cycle 46, without glucose
  Fluorescence raw data, Channel Cycling A.530/585hp: 2.065
E. coli AG100tet; cycle 47, without glucose
  Fluorescence raw data, Channel Cycling A.530/585hp: 2.081
E. coli AG100tet; cycle 48, without glucose
  Fluorescence raw data, Channel Cycling A.530/585hp: 2.1149
E. coli AG100tet; cycle 49, without glucose
  Fluorescence raw data, Channel Cycling A.530/585hp: 2.071
E. coli AG100tet; cycle 50, without glucose
  Fluorescence raw data, Channel Cycling A.530/585hp: 2.047
E. coli AG100tet; cycle 51, without glucose
  Fluorescence raw data, Channel Cycling A.530/585hp: 2.071
E. coli AG100tet; cycle 52, without glucose
  Fluorescence raw data, Channel Cycling A.530/585hp: 2.107
E. coli AG100tet; cycle 53, without glucose
  Fluorescence raw data, Channel Cycling A.530/585hp: 2.082
E. coli AG100tet; cycle 54, without glucose
  Fluorescence raw data, Channel Cycling A.530/585hp: 2.046
E. coli AG100tet; cycle 55, without glucose
  Fluorescence raw data, Channel Cycling A.530/585hp: 2.03
E. coli AG100tet; cycle 56, without glucose
  Fluorescence raw data, Channel Cycling A.530/585hp: 2.023
E. coli AG100tet; cycle 57, without glucose
  Fluorescence raw data, Channel Cycling A.530/585hp: 2.015
E. coli AG100tet; cycle 58, without glucose
  Fluorescence raw data, Channel Cycling A.530/585hp: 2.049
E. coli AG100tet; cycle 59, without glucose
  Fluorescence raw data, Channel Cycling A.530/585hp: 2.011
E. coli AG100tet; cycle 60, without glucose
  Fluorescence raw data, Channel Cycling A.530/585hp: 2.05
E. coli AG100tet; cycle 61, without glucose
  Fluorescence raw data, Channel Cycling A.530/585hp: 1.991
